Results: the supplement of paper PMC10307832

Legend:
Test in all cases: relative viability (nuclei count vs DMSO), 5 days (fraction); higher = more cells survive
Selumetinib + Decitabine = compound: Cn1cnc2c(F)c(Nc3ccc(Br)cc3Cl)c(C(=O)NOCCO)cc21 [Selumetinib] + Nc1ncn([C@H]2C[C@H](O)[C@@H](CO)O2)c(=O)n1 [Decitabine] (partner 2 µM)
How it was run: (§1)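 Five library-drug doses in √10 steps were combined with a fixed anchor-drug dose, or a single drug was given alone, by pin tool to lung cancer cell lines in 1536-well plates the day after seeding. Nuclei were stained and counted after 5 days. Relative viability is the nuclei count in treated wells over that in vehicle wells, taken as the median of duplicate plates.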

Venetoclax + Crizotinib = compound: CC1(C)CCC(CN2CCN(c3ccc(C(=O)NS(=O)(=O)c4ccc(NCC5CCOCC5)c([N+](=O)[O-])c4)c(Oc4cnc5[nH]ccc5c4)c3)CC2)=C(c2ccc(Cl)cc2)C1 [Venetoclax] + C[C@@H](Oc1cc(-c2cnn(C3CCNCC3)c2)cnc1N)c1c(Cl)ccc(F)c1Cl [Crizotinib] (partner 1 µM)
How it was run: as §1

[1] = compound: Cn1cnc2c(F)c(Nc3ccc(Br)cc3Cl)c(C(=O)NOCCO)cc21 [Selumetinib] + CC(=O)c1c(C)c2cnc(Nc3ccc(N4CCNCC4)cn3)nc2n(C2CCCC2)c1=O [Palbociclib] (partner 0.5 µM)
How it was run: as §1

Venetoclax + Linsitinib = compound: CC1(C)CCC(CN2CCN(c3ccc(C(=O)NS(=O)(=O)c4ccc(NCC5CCOCC5)c([N+](=O)[O-])c4)c(Oc4cnc5[nH]ccc5c4)c3)CC2)=C(c2ccc(Cl)cc2)C1 [Venetoclax] + C[C@]1(O)C[C@@H](c2nc(-c3ccc4ccc(-c5ccccc5)nc4c3)c3c(N)nccn32)C1 [Linsitinib] (partner 1 µM)
How it was run: as §1

Cell Line	relative viability (Selumetinib + Decitabine; first compound 0.02 µM)	relative viability (Selumetinib + Decitabine; first compound 0.06325 µM)	relative viability (Selumetinib + Decitabine; first compound 0.2 µM)	relative viability (Selumetinib + Decitabine; first compound 0.6325 µM)	relative viability (Venetoclax + Crizotinib; first compound 0.01 µM)	relative viability (Venetoclax + Crizotinib; first compound 0.03162 µM)	relative viability (Venetoclax + Crizotinib; first compound 0.1 µM)	relative viability (Venetoclax + Crizotinib; first compound 0.3162 µM)	relative viability (Venetoclax + Crizotinib; first compound 1 µM)	relative viability ([1]; first compound 0.02 µM)	relative viability ([1]; first compound 0.06325 µM)	relative viability ([1]; first compound 0.2 µM)	relative viability ([1]; first compound 0.6325 µM)	relative viability (Venetoclax + Linsitinib; first compound 0.01 µM)	relative viability (Venetoclax + Linsitinib; first compound 0.03162 µM)	relative viability (Venetoclax + Linsitinib; first compound 0.1 µM)	relative viability (Venetoclax + Linsitinib; first compound 0.3162 µM)	relative viability (Venetoclax + Linsitinib; first compound 1 µM)
LXF-289	0.356	0.418	0.36	0.437	0.832	0.816	0.776	0.798	0.702	0.554	0.529	0.468	0.468	0.973	0.955	0.895	0.932	0.856
NCI-H23	0.324	0.268	0.319	0.302	0.488	0.491	0.353	0.507	0.394	0.494	0.393	0.354	0.314	0.646	0.648	0.527	0.467	0.533
NCI-H322M	0.722	0.71	0.598	0.548	0.988	0.838	0.912	0.894	0.878	0.403	0.413	0.459	0.448	0.913	0.916	0.889	0.891	0.852
NCI-H358	0.194	0.181	0.193	0.158	0.577	0.609	0.581	0.837	0.63	0.123	0.125	0.127	0.125	0.754	0.812	0.624	0.679	0.702
NCI-H441	0.244	0.224	0.207	0.268	0.845	0.976	0.745	0.679	0.71	0.168	0.154	0.157	0.139	0.445	0.716	0.568	0.482	0.511
NCI-H460	0.432	0.484	0.402	0.326	0.902	0.773	0.946	0.908	0.719	0.147	0.142	0.0907	0.0517	0.827	0.829	0.665	0.632	0.726
NCI-H520	0.551	0.493	0.523	0.606	0.769	0.698	0.658	0.835	0.698	0.211	0.236	0.237	0.258	1.04	0.935	0.911	0.969	0.902
NCI-H647	0.354	0.351	0.621	0.447	0.803	1.35	–	0.974	0.722	0.339	0.353	0.354	0.364	0.996	1.15	–	1.4	1.02
NCI-H650	0.334	0.283	0.342	0.376	0.725	0.699	–	0.701	0.641	0.395	0.571	0.516	0.521	0.912	0.843	–	1.04	0.754
NCI-H661	0.572	0.492	0.546	0.51	0.987	1.09	1.12	–	1.05	0.415	0.384	0.418	0.382	0.676	0.662	0.551	0.703	0.567
NCI-H727	0.762	0.578	0.606	0.583	0.838	0.922	0.912	0.976	0.673	0.473	0.517	0.489	0.423	0.334	0.344	0.201	0.293	0.296
NCI-H838	0.446	0.421	0.45	0.448	0.815	0.854	0.8	0.88	0.795	0.206	0.191	0.201	0.203	1.11	1.03	1.01	1.03	0.938
NCI-H1355	0.385	0.357	0.377	0.329	1.07	1.14	1.07	0.984	1.04	0.315	0.284	0.266	0.241	0.812	0.814	0.778	0.792	0.753
NCI-H1437	0.614	0.537	0.464	0.544	0.851	0.941	0.949	0.899	0.864	0.319	0.292	0.258	0.224	0.92	1.08	0.975	0.952	0.932
NCI-H1651	0.626	0.531	0.644	0.701	0.866	0.856	0.879	0.889	0.825	0.512	0.501	0.475	0.489	0.926	1.13	0.938	0.962	0.995
NCI-H1666	0.758	0.682	0.689	0.71	0.94	0.985	1.02	1	0.916	0.669	0.649	0.699	0.668	0.909	0.864	0.731	0.759	0.745
NCI-H1734	0.53	0.479	0.502	0.528	0.733	0.833	0.724	0.73	0.614	0.304	0.332	0.36	0.313	0.894	0.911	0.803	0.855	0.865
NCI-H1755	0.716	0.729	0.662	0.73	0.769	0.885	0.872	0.863	0.779	0.41	0.437	0.444	0.422	0.978	1	0.848	0.964	0.969

Cell Line	relative viability (Selumetinib + Decitabine; first compound 0.02 µM)	relative viability (Selumetinib + Decitabine; first compound 0.06325 µM)	relative viability (Selumetinib + Decitabine; first compound 0.2 µM)	relative viability (Selumetinib + Decitabine; first compound 0.6325 µM)	relative viability (Venetoclax + Crizotinib; first compound 0.01 µM)	relative viability (Venetoclax + Crizotinib; first compound 0.03162 µM)	relative viability (Venetoclax + Crizotinib; first compound 0.1 µM)	relative viability (Venetoclax + Crizotinib; first compound 0.3162 µM)	relative viability (Venetoclax + Crizotinib; first compound 1 µM)	relative viability ([1]; first compound 0.02 µM)	relative viability ([1]; first compound 0.06325 µM)	relative viability ([1]; first compound 0.2 µM)	relative viability ([1]; first compound 0.6325 µM)	relative viability (Venetoclax + Linsitinib; first compound 0.01 µM)	relative viability (Venetoclax + Linsitinib; first compound 0.03162 µM)	relative viability (Venetoclax + Linsitinib; first compound 0.1 µM)	relative viability (Venetoclax + Linsitinib; first compound 0.3162 µM)	relative viability (Venetoclax + Linsitinib; first compound 1 µM)
NCI-H1792	0.635	0.486	0.52	0.425	0.938	0.946	0.983	0.98	0.93	0.646	0.566	0.46	0.4	0.469	0.46	0.467	0.408	0.591
NCI-H1915	0.28	0.263	0.239	0.246	0.882	0.862	0.811	0.836	0.805	0.491	0.366	0.33	0.228	1.02	1.11	0.982	1.07	1.03
NCI-H1944	0.433	0.456	0.397	0.426	1.18	1.17	0.791	1.04	1.12	0.303	0.312	0.253	0.231	1.4	1.28	1.15	1.16	1.23
NCI-H1975	0.615	0.384	0.385	0.334	1.13	0.907	0.974	0.879	0.867	0.517	0.509	0.467	0.388	1.02	0.971	0.869	0.92	0.92
NCI-H1993	0.571	0.615	0.549	0.604	0.854	0.851	0.906	0.838	0.774	0.592	0.557	0.527	0.427	0.73	0.651	0.739	0.775	0.749
NCI-H2009	0.354	0.292	0.35	0.279	0.99	1.01	0.954	1.01	0.968	0.15	0.136	0.122	0.143	1.2	1.14	1.09	1.09	1.11
NCI-H2023	0.232	0.211	0.209	0.247	0.541	0.737	0.721	0.552	0.53	0.355	0.299	0.304	0.339	0.685	0.636	0.657	0.682	0.678
NCI-H2085	0.524	0.593	0.537	0.544	0.815	0.903	0.765	1.02	0.745	0.464	0.462	0.415	0.355	0.881	0.782	0.853	0.909	0.853
NCI-H2087	0.267	0.253	0.249	0.213	0.931	0.805	1.11	1.03	0.863	0.197	0.168	0.144	0.0937	1.01	1.13	1.01	0.983	0.945
NCI-H2126	0.559	0.513	0.564	0.56	0.986	1.02	1.04	0.971	0.969	0.333	0.265	0.35	0.333	0.792	0.733	0.695	0.741	0.689
NCI-H2347	0.571	0.585	0.49	0.34	0.74	0.81	0.726	0.533	0.677	0.401	0.435	0.388	0.361	0.93	0.953	1.01	0.958	0.95
NCI-H2405	0.733	0.751	0.736	0.615	0.856	0.881	0.771	0.824	0.79	0.485	0.434	0.395	0.344	0.931	0.955	–	0.989	0.9
NCI-H3122	0.401	0.394	0.401	0.452	0.306	0.258	0.269	0.247	0.276	0.188	0.139	0.132	0.153	1.08	1.02	0.969	1.06	1.06
PC-3 [JPC-3]	0.786	0.745	0.796	0.798	0.896	0.987	1.04	0.965	0.969	0.484	0.566	0.515	0.571	0.922	1.01	0.977	0.938	0.949
PC-14	0.241	0.2	0.227	0.179	0.844	0.972	1.06	0.864	0.801	0.482	0.369	0.363	0.309	0.925	0.993	1.04	0.818	0.811
RERF-LC-KJ	0.682	0.608	0.639	0.737	0.742	0.872	1.08	0.879	0.785	1.03	0.946	0.84	0.908	0.792	0.899	0.904	0.883	0.85
SK-LU-1	0.793	0.65	0.572	0.438	0.814	0.972	0.763	0.983	0.849	0.381	0.353	0.362	0.263	1.01	1.25	0.998	1.04	1.13
